Results from patent US9416128B2, “Fused heterocyclic compounds as ion channel modulators” (Gilead Sciences, Inc., priority 2013, dated 2016).

Columns and labels:
[1] = test system: ischemia-induced ST segment elevation; assay: Ischemia-induced ST segment elevation in anesthetized rabbits; type: in vivo, rabbit; settings: iv infusion, 0.9 uM concentration
Method: This study was undertaken to determine the anti-ischemic effects of compounds of the present disclosure in an in vivo rabbit model.
Female New Zealand rabbits (3.0-4.0 kg) were purchased from Western Oregon Rabbitry. Animals were housed on a 12-h light and dark cycle and received standard laboratory chow and water. All experiments were performed in accordance with the Guide for the Care and Use of Laboratory Animals published by The National Research Council and with the experimental protocol approved by the Institutional Animal Care Committee of Gilead Sciences, Inc.
Rabbits were anesthetized with ketamine (35 mg/kg) and xylazine (5 mg/kg) intramuscular injection (im). A tracheotomy was performed and the trachea was intubated with an endotracheal tube. […]
Reference electrodes were placed in the open incision of the neck. The body temperature of the animal was monitored via a rectal thermometer and maintained at 37-40° C. by adjusting the surface temperature of the surgical table. […] The ischemic area was visualized by perfusing the heart with 1% Evans blue in saline and calculated as a percentage of total ventricular weight. […]

[2] = test system: hNaV1.3 (SCN3A); assay: Voltage-dependent inhibition of the NaV1.3 sodium channel; type: cell-based, human; settings: voltage-dependent block at 1 uM
Method: HEK-293 cells stably expressing wild-type (WT) hNaV1.3 (SCN3A NCBI # NP_001075, SCN1B NCBI # NM_001037.4, SCN2B NCBI # NM_004588.2) were used to record INa. Cells are maintained with standard tissue culture procedures and stable channel expression is maintained with 800 ug/mL G418 and 3 ug/mL Puromycin in the culture medium. Unless otherwise noted, all reagents are purchased from Sigma-Aldrich (St Louis, Mo., U.S.A.).
Assays measuring Voltage-Dependent Block (VDB) of NaV1.3 are performed on an automated electrophysiology platform, QPatch 16X or QPatch HT (Sophion Bioscience, Copenhagen, Denmark), using the whole cell patch clamp technique to measure currents through the cell membrane. Series resistance compensation is set to 100% and series resistance and whole-cell compensation are performed automatically. Currents stored in the Sophion Bioscience Oracle database (Sophion Bioscience, Copenhagen, Denmark). Analysis is performed using QPatch Assay software and data are compiled in Excel 2010 (Microsoft, Seattle, Wash., U.S.A.).
The internal (pipette) solution consists of (in mM) 105 CsF, 10 NaF, 20 CsCl, 2 EGTA, 10 HEPES, 10 Dextrose with a pH of 7.35 and osmolarity of 300 mOsmol/kg. The external (bath) solution contains in (mM): 80 NaCl, 60 Choline-Cl, 4 KCl, 1.8 CaCl2, 1 MgCl2, 10 dextrose, 10 HEPES, with a pH of 7.35 and osmolarity of 310 mOsmol/kg. Experiments are carried out at 23-25° C.
Compound stocks are routinely made by the Gilead Sample Bank in vials to 10 mM in dimethyl sulfoxide (DMSO). In some cases, when compounds are not soluble in DMSO, they are made in 100% ethanol. […] Cells are allowed to stabilize for 10 min after establishment of the whole-cell configuration before current is measured. […]
Voltage-dependent block of NaV1.3 peak current was measured during a voltage step to 0 mV (20 ms) following a voltage step pre-conditioning steps (−55 mV for 10 sec followed by −120 mV for 10 ms). […] The voltage protocol for VDB was performed every 45 seconds in the absence and presence of compound and percentage inhibition was calculated with respect to the compound free condition.

SMILES | inhibition in the rabbit ST segment elevation assay [1] [%] | NaV1.3 VDB % inhibition at 1 uM [2] [%]
COc1cc(OC(F)(F)F)ccc1-c1ccc2c(c1)CN(Cc1ncccn1)C(=O)O2 [Example 1, 6-(2-methoxy-4-(trifluoromethoxy)phenyl)-3-(pyrimidin-2-ylmethyl)-3,4-dihydro-2H-benzo[e][1,3]oxazin-2-one] | 58 | –
Cc1cc(-c2ccc3c(c2)CN(Cc2ncccn2)C(=O)O3)ccc1OC(F)(F)F [Example 5, 6-(3-methyl-4-(trifluoromethoxy)phenyl)-3-(pyrimidin-2-ylmethyl)-3,4-dihydro-2H-benzo[e][1,3]oxazin-2-one] | – | 31
O=C1Oc2ccc(-c3ccc(OC(F)(F)F)cc3F)cc2CN1Cc1ncccn1 [Example 7, 6-(2-fluoro-4-(trifluoromethoxy)phenyl)-3-(pyrimidin-2-ylmethyl)-3,4-dihydro-2H-benzo[e][1,3]oxazin-2-one] | – | 32
Cc1cc(OC(F)(F)F)ccc1-c1ccc2c(c1)CN(Cc1ncccn1)C(=O)O2 [Example 8, 6-(2-methyl-4-(trifluoromethoxy)phenyl)-3-(pyrimidin-2-ylmethyl)-3,4-dihydro-2H-benzo[e][1,3]oxazin-2-one] | – | 13.8
